{
  "source": "patent US20240228469A1",
  "about": "“PCSK9 INHIBITORS AND METHODS OF USE THEREOF” (AstraZeneca AB, priority 2022, published 2024)",
  "key": {"[1]": {"target": "GSK3β (Glycogen synthase kinase-3 beta) (Homo sapiens, UniProt P49841)", "sequence (P49841 whole entry)": "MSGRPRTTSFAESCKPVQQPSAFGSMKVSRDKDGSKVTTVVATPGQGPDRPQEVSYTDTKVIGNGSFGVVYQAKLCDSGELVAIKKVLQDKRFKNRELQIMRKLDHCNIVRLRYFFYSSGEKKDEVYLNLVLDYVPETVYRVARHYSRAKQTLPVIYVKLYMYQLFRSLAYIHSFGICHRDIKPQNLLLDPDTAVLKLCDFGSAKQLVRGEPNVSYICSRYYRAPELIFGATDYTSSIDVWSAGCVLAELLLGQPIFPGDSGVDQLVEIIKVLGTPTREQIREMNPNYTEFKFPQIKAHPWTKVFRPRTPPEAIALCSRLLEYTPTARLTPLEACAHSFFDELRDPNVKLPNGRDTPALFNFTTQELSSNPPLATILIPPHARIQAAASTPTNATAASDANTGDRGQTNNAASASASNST", "test": "Assay 6 GSK3β assay (ThermoFisher Z-Lyte FRET)", "type": "biochemical", "conditions": "ATP Conc: 10 μM, geometric mean; read-out: Assay 6 (GSK3β FRET-Z-Lyte Cr) GMean IC50", "method_in_brief": "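Z-Lyte FRET: 0.22-0.92 ng kinase with 2 μM Ser/Thr 09 peptide in HEPES pH 7.5, MgCl2, EGTA, 60 min at room temperature, then 60 min development. Compounds in 1% DMSO, 10-point 3-fold series from 10 μM; sigmoidal dose-response fit.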"}, "PCSK9 [2]": {"target": "T1, PCSK9 (Homo sapiens, UniProt Q8NBP7, G670E/V474I)", "T1 sequence (Q8NBP7 with tags, fused parts or gaps V474I/G670E)": "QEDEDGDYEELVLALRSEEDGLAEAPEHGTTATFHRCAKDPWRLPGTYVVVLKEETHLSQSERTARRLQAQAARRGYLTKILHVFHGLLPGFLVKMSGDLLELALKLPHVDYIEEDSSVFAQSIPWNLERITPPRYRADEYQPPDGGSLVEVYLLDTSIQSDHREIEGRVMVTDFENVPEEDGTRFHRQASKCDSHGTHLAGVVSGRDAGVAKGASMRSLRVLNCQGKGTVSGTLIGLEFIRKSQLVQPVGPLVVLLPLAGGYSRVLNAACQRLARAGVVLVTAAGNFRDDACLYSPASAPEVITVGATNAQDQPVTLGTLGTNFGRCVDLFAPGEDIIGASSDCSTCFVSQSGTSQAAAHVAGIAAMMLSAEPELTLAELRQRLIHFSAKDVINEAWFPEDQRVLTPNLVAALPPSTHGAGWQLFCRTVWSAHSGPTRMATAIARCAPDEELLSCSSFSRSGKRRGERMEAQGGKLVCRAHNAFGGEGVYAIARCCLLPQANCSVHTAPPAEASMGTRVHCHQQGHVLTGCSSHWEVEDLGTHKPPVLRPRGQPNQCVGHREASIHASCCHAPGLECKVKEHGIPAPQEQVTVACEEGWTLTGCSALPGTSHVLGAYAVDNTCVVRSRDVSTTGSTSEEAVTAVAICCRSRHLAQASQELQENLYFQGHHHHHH", "test": "Assay 3 PCSK9 LDL-C uptake assay in HepG2 cells", "type": "cell-based", "set-up": "TEV site (C); His6 (C); host or cells: added to HepG2 (ATCC #HB-8065)", "conditions": "125 nM PCSK9, pHrodo Red-LDL, read-out: Assay 3 LDL uptake potency", "method_in_brief": "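HepG2 cells were plated for 24 h, then exposed for 24 h at 37 °C to compounds (half-log series, 10 μM top) with 125 nM exogenous PCSK9. pHrodo Red-LDL ([…]) uptake was then imaged by fluorescence at 4 h and 24 h. Signal was normalized as % effect between DMSO and 100 nM evolocumab, with a four-parameter logistic fit.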"}, "[3]": {"target": "T2, potassium ion channel hERG (Homo sapiens, UniProt Q12809)", "T2 construct": "expressed in transfected cells; host or cells: Chinese hamster ovary K1 (CHO)", "T2 sequence (Q12809 whole entry)": "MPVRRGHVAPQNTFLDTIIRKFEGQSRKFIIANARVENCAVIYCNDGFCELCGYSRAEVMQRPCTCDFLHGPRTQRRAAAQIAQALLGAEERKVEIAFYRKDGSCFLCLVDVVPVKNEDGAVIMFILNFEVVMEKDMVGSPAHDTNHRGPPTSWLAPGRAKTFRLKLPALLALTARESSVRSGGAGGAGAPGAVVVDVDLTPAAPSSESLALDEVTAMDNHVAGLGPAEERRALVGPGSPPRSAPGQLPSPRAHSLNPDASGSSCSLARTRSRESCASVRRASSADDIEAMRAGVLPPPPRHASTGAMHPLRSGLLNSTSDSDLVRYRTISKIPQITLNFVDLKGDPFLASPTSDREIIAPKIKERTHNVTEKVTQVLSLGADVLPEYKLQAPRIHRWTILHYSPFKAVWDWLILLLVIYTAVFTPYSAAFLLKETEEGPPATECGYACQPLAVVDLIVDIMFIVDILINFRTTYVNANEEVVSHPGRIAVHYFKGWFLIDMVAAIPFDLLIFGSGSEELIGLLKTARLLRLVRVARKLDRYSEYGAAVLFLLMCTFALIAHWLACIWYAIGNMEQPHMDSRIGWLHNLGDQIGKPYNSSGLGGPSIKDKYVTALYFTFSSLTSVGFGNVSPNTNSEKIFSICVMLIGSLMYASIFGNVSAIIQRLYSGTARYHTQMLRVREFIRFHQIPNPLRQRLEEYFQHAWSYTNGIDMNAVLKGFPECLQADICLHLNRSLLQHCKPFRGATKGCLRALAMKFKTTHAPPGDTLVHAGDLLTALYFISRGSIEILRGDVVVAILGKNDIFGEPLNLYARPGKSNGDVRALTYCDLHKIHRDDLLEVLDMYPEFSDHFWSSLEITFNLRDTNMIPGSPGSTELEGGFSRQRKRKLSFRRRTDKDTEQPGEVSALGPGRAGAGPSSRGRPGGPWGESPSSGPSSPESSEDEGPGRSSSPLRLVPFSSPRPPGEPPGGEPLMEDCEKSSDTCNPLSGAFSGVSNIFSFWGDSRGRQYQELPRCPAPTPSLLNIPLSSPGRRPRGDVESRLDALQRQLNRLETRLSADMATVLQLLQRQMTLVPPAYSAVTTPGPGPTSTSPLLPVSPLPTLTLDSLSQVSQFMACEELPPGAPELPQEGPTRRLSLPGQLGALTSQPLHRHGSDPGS", "test": "Assay 5 hERG assay (patch clamp, CHO cells over-expressing hERG)", "type": "cell-based", "conditions": "SyncroPatch 384PE, room temperature, geometric mean, read-out: Assay 5 (hERG Hu CHO if EPh CR-Syncro) GMean IC50", "method_in_brief": "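hERG currents recorded by automated patch clamp at room temperature in CHO-K1 cells, 6-point cumulative concentrations. SyncroPatch runs used KF-based internal (pH 7.2) and NMDG-containing external solution (pH 7.4), 0.33% DMSO; QPatchII runs used 2% or 0.4% DMSO. Only wells meeting seal-resistance and current-size criteria kept.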"}, "PCSK9 [4]": {"target": "T1, PCSK9", "test": "biochemical"}},
  "data": [
    {"smiles": "Cc1cnc(N[C@H]2CC[C@H](Nc3ccc(-n4cccc(Cl)c4=O)cn3)C2)nn1", "note": "[Example 129, 3-Chloro-6′-(((1S,3S)-3-((6-methyl-1,2,4-triazin-3-yl)amino)cyclopentyl)amino)-2H-[1,3′-bipyridin]-2-one]", "values": [
      {"measurement": "IC50", "setting": "[1]", "result": 4850, "unit": "nM"},
      {"measurement": "EC50", "setting": "PCSK9 [2]", "result": 100, "unit": "nM"},
      {"measurement": "IC50", "setting": "[3]", "result": "> 40000", "unit": "nM"},
      {"measurement": "IC50", "setting": "PCSK9 [4]", "result": 1.6, "unit": "nM"}
    ]},
    {"smiles": "Cc1cnc(N[C@H]2CC[C@H](Nc3ccc(-n4cccc(C)c4=O)cn3)C2)nn1", "note": "[Example 131, 3-Methyl-6′-(((1S,3S)-3-((6-methyl-1,2,4-triazin-3-yl)amino)cyclopentyl)amino)-2H-[1,3′-bipyridin]-2-one]", "values": [
      {"measurement": "IC50", "setting": "[1]", "result": "> 10000", "unit": "nM"},
      {"measurement": "EC50", "setting": "PCSK9 [2]", "result": 100, "unit": "nM"},
      {"measurement": "IC50", "setting": "[3]", "result": "> 72600", "unit": "nM"},
      {"measurement": "IC50", "setting": "PCSK9 [4]", "result": 2.7, "unit": "nM"}
    ]},
    {"smiles": "COc1cccn(-c2ccc(N[C@H]3CC[C@H](Nc4ncc(C)nn4)C3)nc2)c1=O", "note": "[Example 132, 3-Methoxy-6′-(((1S,3S)-3-((6-methyl-1,2,4-triazin-3-yl)amino)cyclopentyl)amino)-2H-[1,3′-bipyridin]-2-one]", "values": [
      {"measurement": "IC50", "setting": "[1]", "result": 2060, "unit": "nM"},
      {"measurement": "EC50", "setting": "PCSK9 [2]", "result": 100, "unit": "nM"},
      {"measurement": "IC50", "setting": "[3]", "result": "> 40000", "unit": "nM"},
      {"measurement": "IC50", "setting": "PCSK9 [4]", "result": 2.3, "unit": "nM"}
    ]},
    {"smiles": "COc1ccc(=O)n(-c2ccc(N[C@H]3CC[C@H](Nc4ncc(C)nn4)C3)nc2)c1", "note": "[Example 133, 5-Methoxy-6′-(((1S,3S)-3-((6-methyl-1,2,4-triazin-3-yl)amino)cyclopentyl)amino)-2H-[1,3′-bipyridin]-2-one]", "values": [
      {"measurement": "IC50", "setting": "[1]", "result": 32, "unit": "nM"},
      {"measurement": "EC50", "setting": "PCSK9 [2]", "result": 400, "unit": "nM"},
      {"measurement": "IC50", "setting": "[3]", "result": "> 40000", "unit": "nM"},
      {"measurement": "IC50", "setting": "PCSK9 [4]", "result": 17, "unit": "nM"}
    ]},
    {"smiles": "Cc1cnc(N[C@H]2CC[C@H](Nc3ccc(-n4cc(Cl)ccc4=O)cn3)C2)nn1", "note": "[Example 134, 5-Chloro-6′-(((1S,3S)-3-((6-methyl-1,2,4-triazin-3-yl)amino)cyclopentyl)amino)-2H-[1,3′-bipyridin]-2-one]", "values": [
      {"measurement": "IC50", "setting": "[1]", "result": 439, "unit": "nM"},
      {"measurement": "EC50", "setting": "PCSK9 [2]", "result": 500, "unit": "nM"},
      {"measurement": "IC50", "setting": "[3]", "result": "> 40000", "unit": "nM"},
      {"measurement": "IC50", "setting": "PCSK9 [4]", "result": 8.4, "unit": "nM"}
    ]},
    {"smiles": "Cc1cnc(N[C@H]2CC[C@H](Nc3ccc(-n4cccc(C(F)(F)F)c4=O)cn3)C2)nn1", "note": "[Example 135, 6′-(((1S,3S)-3-((6-Methyl-1,2,4-triazin-3-yl)amino)cyclopentyl)amino)-3-(trifluoromethyl)-2H-[1,3′-bipyridin]-2-one]", "values": [
      {"measurement": "IC50", "setting": "[1]", "result": "> 10000", "unit": "nM"},
      {"measurement": "EC50", "setting": "PCSK9 [2]", "result": 100, "unit": "nM"},
      {"measurement": "IC50", "setting": "[3]", "result": "> 40000", "unit": "nM"},
      {"measurement": "IC50", "setting": "PCSK9 [4]", "result": 2.8, "unit": "nM"}
    ]},
    {"smiles": "Cc1cnc(N[C@H]2CC[C@H](Nc3ccc(-n4cccc(OC(F)F)c4=O)cn3)C2)nn1", "note": "[Example 187, 3-(Difluoromethoxy)-6′-(((1S,3S)-3-((6-methyl-1,2,4-triazin-3-yl)amino)cyclopentyl)amino)-2H-[1,3′-bipyridin]-2-one]", "values": [
      {"measurement": "IC50", "setting": "[1]", "result": 3780, "unit": "nM"},
      {"measurement": "EC50", "setting": "PCSK9 [2]", "result": 100, "unit": "nM"},
      {"measurement": "IC50", "setting": "[3]", "result": "> 40100", "unit": "nM"},
      {"measurement": "IC50", "setting": "PCSK9 [4]", "result": 2.1, "unit": "nM"}
    ]},
    {"smiles": "Cc1cnc(N[C@H]2CC[C@H](Nc3ccc(-n4c(=O)ccc5cccnc54)cn3)C2)nn1", "note": "[Example 197, 1-(6-(((1S,3S)-3-((6-Methyl-1,2,4-triazin-3-yl)amino)cyclopentyl)amino)pyridin-3-yl)-1,8-naphthyridin-2(1H)-one]", "values": [
      {"measurement": "IC50", "setting": "[1]", "result": "> 10000", "unit": "nM"},
      {"measurement": "EC50", "setting": "PCSK9 [2]", "result": 100, "unit": "nM"},
      {"measurement": "IC50", "setting": "[3]", "result": "> 40100", "unit": "nM"},
      {"measurement": "IC50", "setting": "PCSK9 [4]", "result": 2.5, "unit": "nM"}
    ]},
    {"smiles": "Cc1cnc(N[C@H]2CC[C@H](Nc3ccc(-n4cccc(-c5cnn(C)c5)c4=O)cn3)C2)nn1", "note": "[Example 198, 6′-(((1S,3S)-3-((6-Methyl-1,2,4-triazin-3-yl)amino)cyclopentyl)amino)-3-(1-methyl-1H-pyrazol-4-yl)-2H-[1,3′-bipyridin]-2-one]", "values": [
      {"measurement": "IC50", "setting": "[1]", "result": "> 10000", "unit": "nM"},
      {"measurement": "EC50", "setting": "PCSK9 [2]", "result": 100, "unit": "nM"},
      {"measurement": "IC50", "setting": "[3]", "result": "> 40100", "unit": "nM"},
      {"measurement": "IC50", "setting": "PCSK9 [4]", "result": 2.9, "unit": "nM"}
    ]},
    {"smiles": "Cc1cnc(N[C@H]2CC[C@H](Nc3ccc(-n4c(=O)n(C)c5ccc(C#N)cc54)cn3)C2)nn1", "note": "[Example 210, 1-Methyl-3-(6-(((1S,3S)-3-((6-methyl-1,2,4-triazin-3-yl)amino)cyclopentyl)amino)pyridin-3-yl)-2-oxo-2,3-dihydro-1H-benzo[d]imidazole-5-carbonitrile]", "values": [
      {"measurement": "IC50", "setting": "[1]", "result": "> 10000", "unit": "nM"},
      {"measurement": "EC50", "setting": "PCSK9 [2]", "result": 100, "unit": "nM"},
      {"measurement": "IC50", "setting": "[3]", "result": "> 40100", "unit": "nM"},
      {"measurement": "IC50", "setting": "PCSK9 [4]", "result": 0.9, "unit": "nM"}
    ]},
    {"smiles": "Cc1cnc(N[C@H]2CC[C@H](Nc3ccc(-n4c(=O)n(C)c5cccnc54)cn3)C2)nn1", "note": "[Example 212, 1-Methyl-3-(6-(((1S,3S)-3-((6-methyl-1,2,4-triazin-3-yl)amino)cyclopentyl)amino)pyridin-3-yl)-1,3-dihydro-2H-imidazo[4,5-b]pyridin-2-one]", "values": [
      {"measurement": "IC50", "setting": "[1]", "result": "> 10000", "unit": "nM"},
      {"measurement": "EC50", "setting": "PCSK9 [2]", "result": 100, "unit": "nM"},
      {"measurement": "IC50", "setting": "[3]", "result": "> 40100", "unit": "nM"},
      {"measurement": "IC50", "setting": "PCSK9 [4]", "result": 1.8, "unit": "nM"}
    ]},
    {"smiles": "Cc1cnc(N[C@H]2CC[C@H](Nc3ccc(-n4nccc(Cl)c4=O)cn3)C2)nn1", "note": "[Example 221, 4-Chloro-2-(6-(((1S,3S)-3-((6-methyl-1,2,4-triazin-3-yl)amino)cyclopentyl)amino)pyridin-3-yl)pyridazin-3(2H)-one]", "values": [
      {"measurement": "IC50", "setting": "[1]", "result": "> 10000", "unit": "nM"},
      {"measurement": "EC50", "setting": "PCSK9 [2]", "result": 300, "unit": "nM"},
      {"measurement": "IC50", "setting": "[3]", "result": "> 40100", "unit": "nM"},
      {"measurement": "IC50", "setting": "PCSK9 [4]", "result": 1.6, "unit": "nM"}
    ]}
  ]
}
